Measured values published in patent US11591292B2, “Preparation of cationic surfactants” (Saudi Arabian Oil Company, priority 2020, dated 2023).

Tests used:
Format in all cases: physicochemical
[1] = Critical micelle concentration (CMC) in seawater
Description: (§1) The properties of the surfactants in seawater including compatibility, critical micelle concentration (CMC) and the interfacial tension were investigated.

[2] = Compatibility of surfactants in seawater; set-up: key: A = clear; B = phase separation; settings: in seawater (total salinity 57,670 ppm)
Description: as §1

[3] = Interfacial tension (IFT) of surfactants in seawater; settings: for IFT 500 mg/L: surfactant 500 mg/L; for IFT 1000 mg/L: surfactant 1000 mg/L; for IFT 2000 mg/L: surfactant 2000 mg/L
Description: as §1

SMILES | CMC [1] [mol/L] | Compatibility 25° C. [2] | Compatibility 95° C. [2] | IFT 500 mg/L [3] | IFT 1000 mg/L [3] | IFT 2000 mg/L [3]
CCCCCCCC/C=C\CCCCCCCCCCCC(=O)NCCC[N+](C)(C)CC(O)CO.[Cl-] (stereo not drawn) [C22APDAC, Erucyl amidopropyl-2,3-dihydroxypropyl ammonium chloride] | 9.58e-06 | A | A | 2.11 × 10^−4 mN/m | 1.21 × 10^−4 mN/m | 1.1 × 10^−3 mN/m
CCCCCCCC/C=C\CCCCCCCCCCCC(=O)NCCC[N+](C)(C)CC(O)COC(C)=O.[Cl-] (stereo not drawn) [C22APHAAC, erucyl amidopropyl-2-hydroxy-3-acetoxypropyl ammonium chloride] | 1.09e-05 | A | B | 1.11 mN/m | 4.83 × 10^−3 mN/m | 2.37 × 10^−3 mN/m
CCCCCCCC/C=C\CCCCCCCCCCCC(=O)NCCC[N+](C)(C)CC(O)COC(=O)CC.[Cl-] (stereo not drawn) [C22APHPAC, Erucyl amidopropyl-2-hydroxy-3-propoionyloxy propyl ammonium chloride] | 1.25e-05 | A | B | 5.7 × 10^−2 mN/m | 7 × 10^−3 mN/m | 4.2 × 10^−2 mN/m
CCCCCCCC/C=C\CCCCCCCCCCCC(=O)NCCC[N+](C)(C)CC(O)COC(=O)C(F)(F)F.[Cl-] (stereo not drawn) [C22APHFAC, Erucyl amidopropyl-2-hydroxy-3-(2,2,2 trifluoroacetoxy) propyl ammonium chloride] | 1.08e-05 | A | B | 0.31 mN/m | 1.87 × 10^−2 mN/m | 7.12 × 10^−3 mN/m
